Reference: patent publication US5312625A, “Fused 7-membered cyclic compound and antipsychotic preparation containing the same” (Suntory Limited, priority 1990, dated 1994)

The compounds below were run against T1, serotonin receptor (Rattus norvegicus, UniProt P19327) (assay: Affinity for serotonin receptor, [3H]8-OHDPAT binding test in rat cerebral cortex). Conditions: [3H]8-OHDPAT 0.4 nM; rat cerebral cortex membranes; pH 7.4; 25° C., 30 minutes; read-out: [^3 H]-8-OH-DPAT IC50.
T1 construct: To a cerebral cortex nucleated from a Wistar-strain male rat; from tissue; host or cells: cerebral cortex of male Wistar rat (membrane preparation)
T1 sequence (P19327 1-422): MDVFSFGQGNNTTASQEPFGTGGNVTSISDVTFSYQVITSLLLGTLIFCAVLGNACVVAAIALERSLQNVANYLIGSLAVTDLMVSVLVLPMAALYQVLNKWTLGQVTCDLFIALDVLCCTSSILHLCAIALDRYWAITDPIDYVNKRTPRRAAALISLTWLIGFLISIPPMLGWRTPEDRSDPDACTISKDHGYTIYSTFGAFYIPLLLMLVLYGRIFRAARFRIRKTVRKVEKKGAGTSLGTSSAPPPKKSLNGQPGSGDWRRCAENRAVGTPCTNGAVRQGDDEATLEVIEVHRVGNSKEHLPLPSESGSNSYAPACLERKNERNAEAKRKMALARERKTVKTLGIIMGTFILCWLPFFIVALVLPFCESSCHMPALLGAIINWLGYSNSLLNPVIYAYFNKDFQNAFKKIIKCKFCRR
Set-up: species or system rat (Wistar-strain male)
Procedure: The experiment was carried out according to the method of S. T. Perouka (J. Neurochem., 47, 529-540 (1986)).
To a cerebral cortex nucleated from a Wistar-strain male rat was added 50 mM Tris-HCl (pH 7.7) buffer, and the mixture was homogenized by a Polytron®. The homogenate was centrifuged at 40,000 G for 10 minutes, and the same buffer was added to the precipitate obtained, followed by homogenization and incubation at 37° C. for 30 minutes. The suspension was again subjected to centrifugation at 40,000 G for 10 minutes, and the same buffer was added to the precipitate, followed by homogenization and a further centrifugation at 40,000 G for 10 minutes. To the final precipitate obtained was added 50 mM Tris-HCl (10 μM pargyline, 4 mM CaCl2 0.1% ascorbic acid) (pH 7.4), and the mixture was homogenized and used for the binding test. The [^3 H]8-OHDPAT used for the binding test was 0.4 nM, with the protein amount being 0.4 to 0.6 mg/ml and the total amount 1 ml. After incubation at 25° C. for 30 minutes, the mixture was filtered by the filtration method, using the Whatman GF/B filter, and the filter was washed 3 times with 5 ml of the same buffer. To the filter was added a scintillation cocktail, followed by a measurement by a liquid scintillation counter.

Row | IC50 | Compound
1 | 9.29 nM | O=C1CSc2ccccc2C(=O)N1CCCCN1CCN(c2ccccc2)CC1 [Example 17]
2 | 3.28 nM | O=C1CSc2ccccc2C(=O)N1CCCCN1CCN(c2ccccn2)CC1 [Example 18, 4-(4-(4-(2-pyridyl)piperazinyl)butyl)-2,3,4,5-tetrahydro-1,4-benzothiazeoine-3,5-dione]
3 | 14.3 nM | O=C1CSc2ccccc2C(=O)N1CCCCN1CCN(c2ncccn2)CC1 [Example 19, 4-(4-(4-(2-pyrimidinyl)piperadinyl)butyl)-2,3,4,5-tetrahydro-1,4-benzothiazepine-3,5-dione]
4 | 13.3 nM | O=C1CNc2ccccc2C(=O)N1CCCCN1CCN(c2ccccn2)CC1 [Example 21, 4-(4-(4-(2-pyridyl)piperazinyl)butyl)-2,3,4,5-tetrahydro-1,4-benzodiazepine-3,5-dione]
5 | 67.3 nM | O=C1CNc2ccccc2C(=O)N1CCCCN1CCN(c2ncccn2)CC1 [Example 22, 4-(4-(4-(2-pyrimidinyl)piperazinyl)butyl)-2,3,4,5-tetrahydro-1,4-benzodiazepine-3,5-dione]
6 | 61.4 nM | CN1CC(=O)N(CCCCN2CCN(c3ccccn3)CC2)C(=O)c2ccccc21 [Example 24, 1-methyl-4-(4-(4-(2-pyridyl)piperazinyl)butyl)-2,3,4,5-tetrahydro-1,4-benzodiazepine-3,5-dione]
7 | 270 nM | CN1CC(=O)N(CCCCN2CCN(c3ncccn3)CC2)C(=O)c2ccccc21 [Example 25]
8 | 17.1 nM | O=C1CCc2ccccc2C(=O)N1CCCCN1CCN(c2ccccn2)CC1 [Example 27, 2-(4-(4-(2-pyridyl)piperazinyl)butyl)-1,3,4,5-tetrahydro-2-benzazepine-1,3-dione]
9 | 58.4 nM | O=C1CCc2ccccc2C(=O)N1CCCCN1CCN(c2ncccn2)CC1 [Example 28, 2-(4-(4-(2-pyrimidinyl)piperazinyl)butyl)-1,3,4,5-tetrahydro-2-benzazepine-1,3-dione]
